In ChEMBL document CHEMBL1201862, “PubChem BioAssay data set” (2004):
Active and inactive are the calls of the source.

Tests used:
Protein skinhead-1 = target: T1, Protein skinhead-1 (Caenorhabditis elegans, UniProt P34707); assay type: functional
T1 sequence (P34707 whole entry): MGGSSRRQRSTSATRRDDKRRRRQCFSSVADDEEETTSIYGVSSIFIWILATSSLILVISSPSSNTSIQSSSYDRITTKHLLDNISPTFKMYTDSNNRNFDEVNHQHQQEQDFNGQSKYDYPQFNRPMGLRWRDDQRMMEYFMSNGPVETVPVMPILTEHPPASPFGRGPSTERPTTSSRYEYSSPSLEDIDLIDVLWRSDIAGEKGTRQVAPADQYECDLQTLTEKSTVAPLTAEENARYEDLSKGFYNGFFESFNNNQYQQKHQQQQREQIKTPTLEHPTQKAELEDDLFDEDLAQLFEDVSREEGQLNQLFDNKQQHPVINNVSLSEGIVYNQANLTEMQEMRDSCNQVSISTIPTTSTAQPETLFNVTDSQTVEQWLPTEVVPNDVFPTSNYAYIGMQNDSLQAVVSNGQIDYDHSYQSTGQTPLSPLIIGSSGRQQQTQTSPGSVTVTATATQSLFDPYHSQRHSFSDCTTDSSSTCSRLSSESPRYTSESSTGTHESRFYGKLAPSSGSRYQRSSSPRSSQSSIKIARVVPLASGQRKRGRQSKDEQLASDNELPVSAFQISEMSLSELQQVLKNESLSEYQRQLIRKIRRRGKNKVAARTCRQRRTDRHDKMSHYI

[1] = Shn3 3'UTR reporter inhibitors, dose response, cell-based, Clone20 osteoblasts, firefly luciferase, cherry-picked (AID 624132); assay type: functional;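 note: firefly luciferase luminescence from reporter carrying the Shn3 3'UTR in osteoblasts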
[2] = HepG2 cell cytotoxicity, dose response, cytotoxicity control for Shn3 inhibitor project, CellTiter-Glo, cherry-picked (AID 624134); assay type: functional, cell-based
INS1 = experiment: beta cell apoptosis inhibitors, cytokine rescue, dose response, luminescence, retest (AID 449756); assay type: functional, cell-based; conditions: Rattus norvegicus;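 note: cell death triggered by IL-1 beta plus TNF-alpha plus IFN-gamma mixture; protective hits raise ATP signal compared with cytokine alone wells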
[3] = Luminescence Cell-Based Dose Confirmation HTS to Identify Activators of 5'UTR Stem-Loop Driven Alpha-Synuclein mRNA Translation in H4 Neuroglioblastoma Cells. [Related pubchem assays: 1829 (Project Summary), 1814 (Primary HTS)]; assay type: functional
H4 = experiment: Luminescence Cell-Based Dose Response HTS to Identify Activators of 5'UTR Stem-Loop Driven Prion Protein mRNA Translation in H4 Neuroglioblastoma Cells. [Related pubchem assays: 1829 (Project Summary), 1814 (Primary HTS)]; assay type: functional; conditions: Homo sapiens
[4] = Luminescence Cell-Based Dose Response HTS to Identify Activators of Luciferase Translation or Activity in H4 […] Cells. [Related pubchem assays: 1829 (Project Summary), 1814 (Primary HTS)]; assay type: functional
[5] = target: T2, Corticotropin-releasing factor receptor 2/Corticotropin-releasing factor-binding protein (Homo sapiens, UniProt P24387+Q13324); experiment: Dose Response confirmation of uHTS hits for small molecule antagonists of the CRF-binding protein and CRF-R2 receptor complex.; assay type: functional; conditions: read-out: IC50_Mean
T2 sequence (Q13324 whole entry): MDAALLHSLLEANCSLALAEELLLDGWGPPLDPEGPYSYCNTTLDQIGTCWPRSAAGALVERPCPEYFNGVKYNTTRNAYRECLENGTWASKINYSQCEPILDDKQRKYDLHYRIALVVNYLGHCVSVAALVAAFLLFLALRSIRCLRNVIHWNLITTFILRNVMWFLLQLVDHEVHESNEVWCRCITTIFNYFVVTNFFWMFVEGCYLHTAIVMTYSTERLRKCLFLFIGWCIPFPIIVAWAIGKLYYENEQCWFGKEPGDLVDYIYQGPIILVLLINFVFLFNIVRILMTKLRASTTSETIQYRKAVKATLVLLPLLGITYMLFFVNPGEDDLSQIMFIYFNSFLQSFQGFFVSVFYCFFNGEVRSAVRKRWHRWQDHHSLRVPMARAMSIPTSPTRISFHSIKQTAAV
T2 sequence (P24387 whole entry): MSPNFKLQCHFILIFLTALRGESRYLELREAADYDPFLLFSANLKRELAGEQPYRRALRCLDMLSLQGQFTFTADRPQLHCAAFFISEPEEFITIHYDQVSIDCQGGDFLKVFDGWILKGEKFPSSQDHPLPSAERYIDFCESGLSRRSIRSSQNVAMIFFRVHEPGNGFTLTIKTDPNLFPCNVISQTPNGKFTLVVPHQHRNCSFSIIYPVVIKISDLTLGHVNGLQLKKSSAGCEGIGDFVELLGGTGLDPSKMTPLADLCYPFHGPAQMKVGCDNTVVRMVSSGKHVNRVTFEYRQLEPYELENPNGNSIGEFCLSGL

[6] = target: T2, Corticotropin-releasing factor receptor 2/Corticotropin-releasing factor-binding protein; experiment: activators of CRF receptor 2 with binding protein – uHTS hits, confirmation (AID 602473); assay type: functional; conditions: read-out: EC50_Mean
[7] = target: T3, Polyadenylate-binding protein 1 (Homo sapiens, UniProt P11940); experiment: PABP1 MLLE–PAM2 interaction inhibitors, dose response, miRNA deadenylation inhibitor project, biochemical, fluorescence polarization, Cy5-PAM2 peptide, secondary (AID 602260); assay type: functional; conditions: read-out: IC50_Mean
T3 sequence (P11940 whole entry): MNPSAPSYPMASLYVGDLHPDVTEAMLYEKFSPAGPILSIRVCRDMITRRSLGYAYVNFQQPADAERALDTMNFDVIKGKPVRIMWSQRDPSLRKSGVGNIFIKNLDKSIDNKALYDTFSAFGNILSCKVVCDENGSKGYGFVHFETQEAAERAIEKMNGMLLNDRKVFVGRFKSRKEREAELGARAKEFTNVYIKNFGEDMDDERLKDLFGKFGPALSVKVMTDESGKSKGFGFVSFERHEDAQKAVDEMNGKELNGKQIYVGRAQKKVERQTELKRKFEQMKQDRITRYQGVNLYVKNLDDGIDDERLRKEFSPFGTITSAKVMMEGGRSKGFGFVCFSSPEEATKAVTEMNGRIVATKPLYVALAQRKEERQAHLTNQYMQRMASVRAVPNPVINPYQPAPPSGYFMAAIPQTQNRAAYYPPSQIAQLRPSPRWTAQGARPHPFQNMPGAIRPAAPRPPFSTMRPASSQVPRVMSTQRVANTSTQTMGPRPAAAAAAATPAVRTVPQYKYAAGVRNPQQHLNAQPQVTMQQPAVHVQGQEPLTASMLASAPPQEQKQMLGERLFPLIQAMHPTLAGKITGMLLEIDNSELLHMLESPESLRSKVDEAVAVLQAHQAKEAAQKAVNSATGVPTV

[8] = target: T3, Polyadenylate-binding protein 1; experiment: PABP1 MLLE–PAM2 binding inhibitor potency, dose response, biochemical, fluorescence polarization, FITC-PAM2 peptide (AID 602259); assay type: functional; conditions: read-out: IC50_Mean
[9] = target: Luciferin 4-monooxygenase (Photinus pyralis, UniProt P08659); experiment: firefly luciferase enzyme inhibitors, dose response, biochemical, luminescence (AID 1891)
Chain of Luciferin 4-monooxygenase (P08659 whole entry): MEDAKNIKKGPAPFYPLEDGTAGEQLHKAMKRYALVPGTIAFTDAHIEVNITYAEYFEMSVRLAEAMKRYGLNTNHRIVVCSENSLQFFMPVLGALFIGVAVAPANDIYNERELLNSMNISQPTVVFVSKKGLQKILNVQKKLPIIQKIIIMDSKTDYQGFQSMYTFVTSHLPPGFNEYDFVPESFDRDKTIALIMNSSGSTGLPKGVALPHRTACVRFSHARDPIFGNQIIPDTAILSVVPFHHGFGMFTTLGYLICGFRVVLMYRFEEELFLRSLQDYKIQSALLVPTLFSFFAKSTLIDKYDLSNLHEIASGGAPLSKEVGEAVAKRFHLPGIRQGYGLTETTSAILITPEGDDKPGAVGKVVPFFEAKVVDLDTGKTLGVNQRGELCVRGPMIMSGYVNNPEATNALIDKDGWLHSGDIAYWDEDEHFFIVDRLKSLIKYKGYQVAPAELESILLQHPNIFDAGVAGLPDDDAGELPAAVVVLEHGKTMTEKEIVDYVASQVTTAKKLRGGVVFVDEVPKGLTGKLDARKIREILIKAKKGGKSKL

[10] = Luminescence Cell-Based Dose Confirmation HTS to Identify Inhibitors of Platelet Dense Granule Release. [Related pubchem assays: 1663 (Primary HTS), 1678 (Summary of Project)]; assay type: functional
Cytochrome P450 2C9 = Cytochrome P450 2C9 (Homo sapiens, UniProt P11712)
Chain of Cytochrome P450 2C9 (P11712 whole entry): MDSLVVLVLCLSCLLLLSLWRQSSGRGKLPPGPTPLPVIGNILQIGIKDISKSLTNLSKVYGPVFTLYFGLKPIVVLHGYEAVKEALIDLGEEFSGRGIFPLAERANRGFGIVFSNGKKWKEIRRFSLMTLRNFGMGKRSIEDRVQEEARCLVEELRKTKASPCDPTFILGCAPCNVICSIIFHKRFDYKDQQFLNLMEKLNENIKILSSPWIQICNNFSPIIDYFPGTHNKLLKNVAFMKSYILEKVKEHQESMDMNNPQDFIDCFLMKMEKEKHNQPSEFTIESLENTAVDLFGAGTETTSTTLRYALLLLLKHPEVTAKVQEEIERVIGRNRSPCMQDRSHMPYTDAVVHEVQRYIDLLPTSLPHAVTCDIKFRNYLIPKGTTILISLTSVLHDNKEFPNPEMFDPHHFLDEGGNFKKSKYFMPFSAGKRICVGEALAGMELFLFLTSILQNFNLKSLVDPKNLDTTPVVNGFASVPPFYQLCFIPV

Cytochrome P450 2C19 = Cytochrome P450 2C19 (Homo sapiens, UniProt P33261); experiment: Cytochrome panel assay with activity outcomes. Panel member name: p450-cyp2c19 Compounds with AC50 equal or less than 10 uM are considered active; assay type: functional; conditions: read-out: AC50
Chain of Cytochrome P450 2C19 (P33261 whole entry): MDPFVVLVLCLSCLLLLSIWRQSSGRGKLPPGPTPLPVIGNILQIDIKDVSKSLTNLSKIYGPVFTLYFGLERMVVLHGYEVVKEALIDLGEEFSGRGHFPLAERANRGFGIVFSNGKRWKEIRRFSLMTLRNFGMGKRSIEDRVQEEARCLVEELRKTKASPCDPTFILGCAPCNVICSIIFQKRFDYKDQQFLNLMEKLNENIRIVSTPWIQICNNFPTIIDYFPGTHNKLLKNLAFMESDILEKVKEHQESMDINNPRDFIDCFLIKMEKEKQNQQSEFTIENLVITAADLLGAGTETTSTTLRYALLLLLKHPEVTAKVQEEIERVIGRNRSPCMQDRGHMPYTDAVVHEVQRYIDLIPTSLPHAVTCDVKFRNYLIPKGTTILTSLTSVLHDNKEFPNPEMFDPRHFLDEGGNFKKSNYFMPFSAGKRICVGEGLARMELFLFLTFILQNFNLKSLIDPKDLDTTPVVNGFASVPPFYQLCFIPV

[11] = control 3'UTR Renilla luciferase suppression, dose response, counter-screen for Shn3 inhibitor project, cell-based, Clone20-Shn3RL, cherry-picked (AID 624133); assay type: functional

For `CN(C)c1ccc(/C=C/c2ccc3ccccc3n2)cc1`, the IC50 (Protein skinhead-1) was > 100 µM (inactive), the AC50 [1] was 1.33 µM (active) and the AC50 [2] was 15.9 µM (active). For the same molecule, the AC50 (INS1) was 3.17 µM (active).

In the case of `COc1ccc(NC2CC(=O)N(C(C)C)C2=O)cc1` (centres undefined), the EC50 [3] is reported as 5.94 µM (active), the EC50 (H4) is reported as > 120 µM (not active) and the EC50 [4] is reported as 18.8 µM (active).

For `CCOc1ccc(NC(=O)[C@@H](NC(=O)c2ccccc2)[C@@H](C)CC)cc1`, the IC50 [5] was > 47.1 µM (inactive) and the EC50 [6] was > 53 µM (inactive).

In the case of `Cc1cccc(C)c1OCC(O)Cn1nnc2ccccc21` (centres undefined), the IC50 [5] is reported as > 47.1 µM (inactive) and the EC50 [6] is reported as > 53 µM (inactive).

For `COc1ccc(Cc2nnc(NC(=O)C3CCCO3)s2)cc1OC` (centres undefined), the IC50 [7] was > 66 µM (inactive) and the IC50 [8] was > 66 µM (inactive).

With `CCOC(=O)Cc1csc(NC(=S)NC(=O)c2ccccc2Br)n1` the IC50 [7] was > 66 µM (inactive) and the IC50 [8] was > 66 µM (inactive).

For `Cc1sc(NC(=O)CCCC(=O)O)c(C(N)=O)c1-c1ccccc1`, the IC50 [7] was > 66 µM (inactive) and the IC50 [8] was > 66 µM (inactive).

For `Cc1cccc(NC(=O)c2cc(-c3ccc(C)s3)nc3ccccc23)n1`, the EC50 [3] was > 120 µM (not active), the EC50 (H4) was 9.88 µM (active) and the EC50 [4] was > 60 µM (not active).

For `Cc1onc(-c2ccccc2Cl)c1C(=O)Nc1ccc(Br)cc1`, the EC50 [9] was > 112 µM (not active) and the EC50 [10] was > 112 µM (not active).

For `COc1ccc(CNC(=O)c2ccc(C(C)C)cc2)cc1`, the EC50 [3] was 53.5 µM (active), the EC50 (H4) was 80.9 µM (active) and the EC50 [4] was 0.16 µM (inconclusive).

For `COC(=O)c1sc(NC(=O)c2ccc(C)o2)nc1C`, the EC50 [9] was 5.6 µM (active) and the EC50 [10] was > 112 µM (not active).

In the case of `Fc1ccccc1C1CCN(Cc2nc(CC3CC3)no2)C1` (centres undefined), the EC50 [3] is reported as 15 µM (active), the EC50 (H4) is reported as 15.4 µM (active) and the EC50 [4] is reported as 17.2 µM (active).

With `CC(C)C(NS(=O)(=O)c1ccc2c(c1)oc(=O)n2C)C(=O)N1CCN(C2CCCCC2)CC1` (centres undefined) the IC50 [5] was > 47.1 µM (inactive) and the EC50 [6] was > 53 µM (inactive).

In the case of `O=c1oc(-c2ccc([N+](=O)[O-])cc2)nc2ccc(O)cc12`, the EC50 [9] is reported as 0.995 µM (active) and the EC50 [10] is reported as 1.72 µM (active).

For `Cc1ccc(S(=O)(=O)c2cc3ccccc3oc2=O)cc1`, the EC50 [3] was > 120 µM (not active) and the EC50 (H4) was > 120 µM (not active).

In the case of `Cc1cccc(NS(=O)(=O)c2cccc(C(=O)N3CCN(c4ccccn4)CC3)c2)c1`, the IC50 [5] is reported as > 47.1 µM (inactive) and the EC50 [6] is reported as > 53 µM (inactive).

In the case of `COC(=O)c1cn(NC(=O)c2ccc(F)cc2)c(=O)c2ccccc12`, the IC50 [5] is reported as > 47.1 µM (inactive), the EC50 [6] is reported as > 53 µM (inactive) and the AC50 (Cytochrome P450 2C9) is reported as 39.8 µM (inconclusive). For the same molecule, the AC50 (Cytochrome P450 2C19) was 17.8 µM (inconclusive).

With `COc1cccc(C(=O)Nc2nc(O)c3c(n2)CCCC3)c1` the EC50 [3] was 14.5 µM (active), the EC50 (H4) was > 120 µM (not active) and the EC50 [4] was > 120 µM (not active).

For `O=C(CCCn1cc([N+](=O)[O-])cn1)NC1CCCCCC1`, the EC50 [9] was > 112 µM (not active) and the EC50 [10] was > 112 µM (not active).

For `COC(=O)CCCC1=CC2=C(c3ccccc3)C(=O)C(C)(OC(=O)C3CCCC3)C(=O)C2=CN1CCN1CCOCC1` (centres undefined), the IC50 [7] was > 66 µM (inactive) and the IC50 [8] was > 66 µM (inactive).

For `CCC1OC(=O)C(C)C(OC2C[C@@](C)(OC)C(O)C(C)O2)C(C)C(O[C@@H]2OC(C)CC(N(C)C)C2O)[C@](C)(O)CC(C)C(=NOCOCCOC)C(C)C(O)[C@]1(C)O` (some centres undefined), the IC50 [5] was > 47.1 µM (inactive) and the EC50 [6] was > 53 µM (inactive).

With `COC(=O)C1=C(C)N(Cc2ccccc2)C(=O)N[C@H]1CCc1ccccc1` the IC50 [5] was > 47.1 µM (inactive) and the EC50 [6] was > 53 µM (inactive).

For `Cc1cc2cc(CNC(=O)c3ccc(S(=O)(=O)N4CCOCC4)cc3)ccc2[nH]1`, the IC50 [7] was > 66 µM (inactive) and the IC50 [8] was > 66 µM (inactive).

In the case of `Cc1ccc(-n2ncc(Cl)c2C(=O)NCc2ccccc2)cc1`, the EC50 [3] is reported as 3.28 µM (active), the EC50 (H4) is reported as 5.76 µM (active) and the EC50 [4] is reported as 4.06 µM (active).

In the case of `O=C(NC(=S)Nc1ccc(S(=O)(=O)N2CCCCC2)cc1)c1cccs1`, the IC50 [7] is reported as > 66 µM (inactive) and the IC50 [8] is reported as > 66 µM (inactive).

For `Cc1cc(C)nc(Nc2nc(=O)c3ccccc3s2)n1`, the IC50 [7] was > 66 µM (inactive) and the IC50 [8] was > 66 µM (inactive).

With `COC(=O)c1cn(C(=O)/C=C/c2ccc(OC)c(OC)c2)c2ccccc12` the EC50 [3] was 20.2 µM (active), the EC50 (H4) was > 120 µM (not active) and the EC50 [4] was 32.1 µM (active).

For `CCN(CC(=O)Nc1sc2c(c1C#N)CCCC2)CC(=O)NC1CCS(=O)(=O)C1` (centres undefined), the EC50 [9] was > 112 µM (not active) and the EC50 [10] was > 112 µM (not active).

For `O=C(NC(=S)Nc1ccc(Cc2ccncc2)cc1)c1ccccc1Cl`, the IC50 [7] was > 66 µM (inactive) and the IC50 [8] was > 66 µM (inactive).

For `COc1ccc2oc(-c3ccncc3)cc(=O)c2c1`, the IC50 [7] was > 66 µM (inactive) and the IC50 [8] was > 66 µM (inactive).

With `CC(C)C(NC(=O)c1ccc(Cl)cc1Cl)C(=O)N1CCN(S(=O)(=O)c2ccccc2)CC1` (centres undefined) the AC50 [1] was 48.5 µM (active) and the AC50 [11] was 21 µM (active).

In the case of `CCCCOc1ccc(N2C(=O)C(C)CNC2=S)cc1` (centres undefined), the IC50 [7] is reported as > 66 µM (inactive) and the IC50 [8] is reported as 41.1 µM (inactive).

For `COc1ccc(NC(=O)c2cc3ccccc3o/c2=N\NS(=O)(=O)c2ccc(C)cc2)cc1`, the EC50 (H4) was 0.575 µM (active).

For `NC(=O)c1ccccc1N/C=C/C(=O)c1ccc(Cl)cc1Cl`, the EC50 [9] was 1.1 µM (active) and the EC50 [10] was 8.86 µM (active).

With `Cc1oc(/N=C/c2ccc3c(c2)OCO3)c(C#N)c1C` the EC50 [3] was > 120 µM (not active), the EC50 (H4) was > 120 µM (not active) and the EC50 [4] was 38.1 µM (active).

In the case of `Cc1nc2ccccc2c(=O)n1/N=C/c1cn(-c2ccccc2)nc1-c1cccs1`, the EC50 [3] is reported as 5.11 µM (active), the EC50 (H4) is reported as 6.75 µM (active) and the EC50 [4] is reported as 14.8 µM (active).
